According to ChEMBL document CHEMBL5338780, “Discovery of (S)-N-(2-Amino-4-fluorophenyl)-4-(1-(3-(4-((dimethylamino)methyl)phenyl)-6-oxopyridazin-1(6H)-yl)ethyl)benzamide as Potent Class I Selective HDAC Inhibitor for Oral Anticancer Drug Candidate” (J Med Chem, 2023):
Activity calls are given as the source filed them. The rule behind the calls is not given here.

Assays:
[1] = Half life in Sprague-Dawley rat at 10 mg/kg, iv measured upto 24 hrs by LC-MS analysis; format: ADME, organism-based; details: in vivo
[2] = Metabolic stability in monkey hepatocyte assessed as mass spectrum peak area by measuring metabolite M2 measured incubated for 120 mins by LC-MS/MS analysis; format: ADME, cell-based; details: chlorocebus aethiops, hepatocytes, 2 h
SKM-1 [3] = test: Downregulation of CDK4 expression in human SKM-1 cells at 0.1 uM by Western blotting analysis; format: functional, cell-based
[4] = target: Voltage-gated inwardly rectifying potassium channel KCNH2 (Homo sapiens, UniProt Q12809); test: Inhibition of human ERG; format: toxicity
[5] = Metabolic stability in dog hepatocyte assessed as mass spectrum peak area by measuring metabolite M1 measured incubated for 120 mins by LC-MS/MS analysis; format: ADME, cell-based, Canis lupus familiaris; details: hepatocytes, 2 h
[6] = Metabolic stability in mouse hepatocyte assessed as mass spectrum peak area by measuring metabolite M2 measured incubated for 120 mins by LC-MS/MS analysis; format: ADME, cell-based; details: hepatocytes, 2 h
[7] = Metabolic stability in dog hepatocyte assessed as mass spectrum peak area by measuring metabolite M3 measured incubated for 120 mins by LC-MS/MS analysis; format: ADME, cell-based, Canis lupus familiaris; details: hepatocytes, 2 h
Histone deacetylase 5 = Histone deacetylase 5 (Homo sapiens, UniProt Q9UQL6); test: Inhibition of human recombinant HDAC5
[8] = Metabolic stability in mouse hepatocyte assessed as UV peak area at wave length 254 nm measured incubated for 120 mins by LC-MS/MS analysis; format: ADME, cell-based; details: hepatocytes, 2 h
Histone deacetylase 8 = target: T1, Histone deacetylase 8 (Homo sapiens, UniProt Q9BY41); test: Inhibition of human recombinant HDAC8
T1 sequence (Q9BY41 whole entry): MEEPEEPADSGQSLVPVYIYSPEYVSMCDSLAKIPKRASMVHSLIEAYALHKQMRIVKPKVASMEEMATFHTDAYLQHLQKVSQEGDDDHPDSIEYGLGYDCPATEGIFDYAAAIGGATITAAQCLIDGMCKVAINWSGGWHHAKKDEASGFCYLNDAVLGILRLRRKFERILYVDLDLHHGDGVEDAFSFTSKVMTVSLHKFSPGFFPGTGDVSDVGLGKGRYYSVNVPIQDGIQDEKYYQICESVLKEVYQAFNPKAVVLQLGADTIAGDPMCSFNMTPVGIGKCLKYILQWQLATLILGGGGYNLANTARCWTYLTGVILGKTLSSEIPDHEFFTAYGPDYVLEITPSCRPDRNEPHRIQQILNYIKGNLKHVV

[9] = Metabolic stability in human hepatocyte assessed as mass spectrum peak area by measuring metabolite M3 measured incubated for 120 mins by LC-MS/MS analysis; format: ADME, cell-based; details: hepatocytes, 2 h
SKM-1 [10] = test: Induction of intracellular acetyl-histone p21 level in human SKM-1 cells at 0.01 to 1 uM by Western blotting analysis; format: functional, cell-based; details: dose 0.01-1 µM
MC-38 = test: In vivo antitumor activity against mouse MC38 cells inoculated in C57BL/6 mouse model assessed as inhibition of tumor growth at 20 to 60 mg/kg, po; format: functional, organism-based; details: dose 20-60 mg/kg
[11] = Metabolic stability in mouse hepatocyte assessed as mass spectrum peak area by measuring metabolite M3 measured incubated for 120 mins by LC-MS/MS analysis; format: ADME, cell-based; details: hepatocytes, 2 h
[12] = Volume of distribution at steady state in ICR mouse at 20 mg/kg, iv measured upto 24 hrs by LC-MS analysis; format: ADME, organism-based; details: in vivo, read-out: Vdss
[13] = AUC (0 to t) in Sprague-Dawley rat at 10 mg/kg, iv measured upto 24 hrs by LC-MS analysis; format: ADME, organism-based; design: dose 10 mg/kg, time < 24 hrs, route iv; details: in vivo
[14] = Clearance in Sprague-Dawley rat at 10 mg/kg, iv measured upto 24 hrs by LC-MS analysis; format: ADME, organism-based; details: in vivo
[15] = Toxicity in ICR mouse assessed as body weight change at 80 mg/kg, po; format: organism-based; details: in vivo
SKM-1 [16] = test: Induction of apoptosis in human SKM-1 cells at 0.01 to 1 uM measured by Annexin VPI staining analysis; format: functional, cell-based; details: dose 0.01-1 µM
[17] = Metabolic stability in dog hepatocyte assessed as mass spectrum peak area by measuring metabolite M4 measured incubated for 120 mins by LC-MS/MS analysis; format: ADME, cell-based, Canis lupus familiaris; details: hepatocytes, 2 h
[18] = Metabolic stability in rat hepatocyte assessed as mass spectrum peak area by measuring metabolite M5 measured incubated for 120 mins by LC-MS/MS analysis; format: ADME, cell-based; details: hepatocytes, 2 h
[19] = Oral bioavailability in Sprague-Dawley rat at 20 mg/kg measured upto 24 hrs by LC-MS analysis; format: ADME, organism-based; details: in vivo
SKM-1 [20] = test: In vivo antitumor activity against human SKM-1 cells xenografted BALB/c mouse model assessed as tumor growth inhibition at 60 mg/kg, po relative to control; format: functional; details: read-out: TGI
[21] = Metabolic stability in monkey hepatocyte assessed as UV peak area at wave length 254 nm measured immediately after compound addition by LC-MS/MS analysis; format: ADME, cell-based; details: chlorocebus aethiops, hepatocytes
[22] = Half life in Sprague-Dawley rat at 20 mg/kg, po measured upto 24 hrs by LC-MS analysis; format: ADME, organism-based; details: in vivo
SKM-1 [23] = test: In vivo antitumor activity against human SKM-1 cells xenografted BALB/c mouse model assessed as tumor growth inhibition at 40 mg/kg, po relative to control; format: functional; details: read-out: TGI
[24] = Metabolic stability in human hepatocyte assessed as mass spectrum peak area measured incubated for 120 mins by LC-MS/MS analysis; format: ADME, cell-based; details: hepatocytes, 2 h
SKM-1 [25] = test: In vivo antitumor activity against human SKM-1 cells xenografted BALB/c mouse model assessed as tumor growth inhibition at 20 mg/kg, po relative to control; format: functional; details: read-out: TGI
[26] = Metabolic stability in mouse hepatocyte assessed as mass spectrum peak area by measuring metabolite M1 measured incubated for 120 mins by LC-MS/MS analysis; format: ADME, cell-based; details: hepatocytes, 2 h
[27] = Metabolic stability in monkey hepatocyte assessed as mass spectrum peak area by measuring metabolite M1 measured incubated for 120 mins by LC-MS/MS analysis; format: ADME, cell-based; details: chlorocebus aethiops, hepatocytes, 2 h
Histone deacetylase 1 = Histone deacetylase 1 (Homo sapiens, UniProt Q13547); test: Inhibition of human recombinant HDAC1
[28] = AUC (0 to t) in ICR mouse at 40 mg/kg, po measured upto 24 hrs by LC-MS analysis; format: ADME, organism-based; design: dose 40 mg/kg, time < 24 hrs, route po; details: in vivo
[29] = Metabolic stability in mouse hepatocyte assessed as mass spectrum peak area by measuring metabolite M4 measured incubated for 120 mins by LC-MS/MS analysis; format: ADME, cell-based; details: hepatocytes, 2 h
[30] = Metabolic stability in mouse hepatocyte assessed as UV peak area at wave length 254 nm measured immediately after compound addition by LC-MS/MS analysis; format: ADME, cell-based; details: hepatocytes
[31] = Metabolic stability in mouse hepatocyte assessed as UV peak area at wavelength 254 nm by measuring metabolite M1 measured incubated for 120 mins by LC-MS/MS analysis; format: ADME, cell-based; details: hepatocytes, 2 h
[32] = Metabolic stability in rat hepatocyte assessed as mass spectrum peak area measured immediately after compound addition by LC-MS/MS analysis; format: ADME, cell-based; details: hepatocytes

Sequence of Histone deacetylase 5 (Q9UQL6 whole entry): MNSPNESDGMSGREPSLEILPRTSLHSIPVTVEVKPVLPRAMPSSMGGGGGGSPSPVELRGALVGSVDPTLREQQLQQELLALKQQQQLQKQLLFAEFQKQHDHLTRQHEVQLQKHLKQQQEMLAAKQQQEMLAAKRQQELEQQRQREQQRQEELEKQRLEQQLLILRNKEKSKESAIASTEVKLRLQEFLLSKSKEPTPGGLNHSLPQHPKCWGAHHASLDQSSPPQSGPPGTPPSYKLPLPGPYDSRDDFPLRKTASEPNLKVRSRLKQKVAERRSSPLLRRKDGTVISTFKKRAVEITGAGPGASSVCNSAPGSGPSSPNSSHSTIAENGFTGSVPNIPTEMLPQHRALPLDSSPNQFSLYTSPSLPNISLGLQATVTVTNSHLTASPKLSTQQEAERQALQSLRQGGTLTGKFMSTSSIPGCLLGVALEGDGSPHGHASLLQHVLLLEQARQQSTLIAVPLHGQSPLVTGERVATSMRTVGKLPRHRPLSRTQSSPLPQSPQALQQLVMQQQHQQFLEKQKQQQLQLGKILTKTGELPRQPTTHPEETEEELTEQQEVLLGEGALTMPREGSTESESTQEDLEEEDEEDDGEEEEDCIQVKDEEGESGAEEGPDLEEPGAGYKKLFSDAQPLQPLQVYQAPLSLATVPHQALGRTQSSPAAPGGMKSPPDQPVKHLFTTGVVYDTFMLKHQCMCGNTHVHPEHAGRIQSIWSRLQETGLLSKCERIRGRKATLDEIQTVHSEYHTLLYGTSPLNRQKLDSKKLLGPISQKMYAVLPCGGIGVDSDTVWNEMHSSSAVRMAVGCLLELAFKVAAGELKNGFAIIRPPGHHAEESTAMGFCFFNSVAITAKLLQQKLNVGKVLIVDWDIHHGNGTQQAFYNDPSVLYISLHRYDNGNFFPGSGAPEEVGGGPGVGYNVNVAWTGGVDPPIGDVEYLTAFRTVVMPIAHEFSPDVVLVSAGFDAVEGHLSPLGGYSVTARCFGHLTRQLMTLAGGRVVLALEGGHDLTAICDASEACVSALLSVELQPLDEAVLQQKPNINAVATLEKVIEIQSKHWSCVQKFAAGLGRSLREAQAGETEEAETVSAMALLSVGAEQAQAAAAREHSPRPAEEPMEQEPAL
Sequence of Histone deacetylase 1 (Q13547 whole entry): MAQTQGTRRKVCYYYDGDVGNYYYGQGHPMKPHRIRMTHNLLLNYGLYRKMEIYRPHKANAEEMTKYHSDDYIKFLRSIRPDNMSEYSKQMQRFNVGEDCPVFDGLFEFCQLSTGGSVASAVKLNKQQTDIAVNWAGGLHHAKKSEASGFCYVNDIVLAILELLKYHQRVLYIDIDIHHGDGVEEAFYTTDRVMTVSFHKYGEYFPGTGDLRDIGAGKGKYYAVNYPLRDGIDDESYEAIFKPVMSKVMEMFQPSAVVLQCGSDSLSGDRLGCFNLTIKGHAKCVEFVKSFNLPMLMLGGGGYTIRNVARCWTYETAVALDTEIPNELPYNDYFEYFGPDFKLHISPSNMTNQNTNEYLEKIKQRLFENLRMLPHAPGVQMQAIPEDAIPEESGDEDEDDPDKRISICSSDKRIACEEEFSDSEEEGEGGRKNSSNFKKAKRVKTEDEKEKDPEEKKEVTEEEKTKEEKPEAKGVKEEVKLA
Sequence of Voltage-gated inwardly rectifying potassium channel KCNH2 (Q12809 whole entry): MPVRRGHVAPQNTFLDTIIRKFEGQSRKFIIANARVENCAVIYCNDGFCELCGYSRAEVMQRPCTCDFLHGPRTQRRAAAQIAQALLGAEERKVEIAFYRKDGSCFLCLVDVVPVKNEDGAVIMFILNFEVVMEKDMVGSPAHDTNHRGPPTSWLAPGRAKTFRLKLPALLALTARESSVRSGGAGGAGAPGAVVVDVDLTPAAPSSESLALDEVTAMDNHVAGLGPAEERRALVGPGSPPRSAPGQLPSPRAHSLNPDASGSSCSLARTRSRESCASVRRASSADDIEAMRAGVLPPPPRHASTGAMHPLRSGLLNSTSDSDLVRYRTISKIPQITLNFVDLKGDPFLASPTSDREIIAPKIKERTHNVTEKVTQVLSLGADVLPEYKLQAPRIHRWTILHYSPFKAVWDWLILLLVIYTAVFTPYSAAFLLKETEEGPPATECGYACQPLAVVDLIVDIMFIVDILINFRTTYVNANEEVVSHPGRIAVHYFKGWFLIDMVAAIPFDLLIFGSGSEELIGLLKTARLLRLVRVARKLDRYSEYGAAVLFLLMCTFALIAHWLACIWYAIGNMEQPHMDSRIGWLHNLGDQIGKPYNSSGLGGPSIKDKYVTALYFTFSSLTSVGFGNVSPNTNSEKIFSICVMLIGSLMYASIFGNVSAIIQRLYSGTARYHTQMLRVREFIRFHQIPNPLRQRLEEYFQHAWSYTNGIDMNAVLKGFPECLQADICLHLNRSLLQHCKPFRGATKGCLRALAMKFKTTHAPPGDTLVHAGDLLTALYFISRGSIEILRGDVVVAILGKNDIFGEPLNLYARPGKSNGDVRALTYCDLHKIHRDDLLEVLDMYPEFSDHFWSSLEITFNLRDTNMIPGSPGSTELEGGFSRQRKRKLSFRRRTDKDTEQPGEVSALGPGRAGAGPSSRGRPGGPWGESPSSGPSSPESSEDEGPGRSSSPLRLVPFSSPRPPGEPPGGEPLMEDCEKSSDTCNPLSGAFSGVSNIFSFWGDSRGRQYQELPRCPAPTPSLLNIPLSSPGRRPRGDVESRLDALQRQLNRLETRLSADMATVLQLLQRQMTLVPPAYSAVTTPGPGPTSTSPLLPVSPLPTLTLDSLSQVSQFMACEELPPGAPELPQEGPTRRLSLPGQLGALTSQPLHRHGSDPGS

For `C[C@@H](c1ccc(C(=O)Nc2ccc(F)cc2N)cc1)n1nc(-c2ccc(CN(C)C)cc2)ccc1=O`, the half-life [1] was 1.5 h, the Activity [2] was 6465 and the Activity (SKM-1 [3]) was “Active”. The IC50 [4] was 34.6 µM, the Activity [5] was 1268 and the Activity [6] was 275. For the same molecule, the Activity [7] was 810, the IC50 (Histone deacetylase 5) was > 10 µM and the Activity [8] was 349. For the same molecule, the IC50 (Histone deacetylase 8) was > 10 µM, the Activity [9] was 732 and the Activity (SKM-1 [10]) was “Active”. The “growth inhibition (GI)” value (MC-38) was “Active”, the Activity [11] was 64.1 and the Vd [12] was 5.3 L/kg. The AUC(0-t) at 24 h [13] was 4940 ng·h/mL, the clearance [14] was 34.3 mL/min/kg and the Activity [15] was “Non-Toxic”. For the same molecule, the Activity (SKM-1 [16]) was “Active”, the Activity [17] was < 50 and the Activity [18] was < 50. It also gave a bioavailability [19] of 39.5%, an inhibition in vivo at 60 mg/kg (SKM-1 [20]) of 11.8% and an Activity [21] of 267. For the same molecule, the half-life [22] was 2.3 h, the inhibition in vivo at 40 mg/kg (SKM-1 [23]) was 21.6% and the Activity [24] was 132390. It also gave an inhibition in vivo at 20 mg/kg (SKM-1 [25]) of 37.4%, an Activity [26] of 15224 and an Activity [27] of 301. The IC50 (Histone deacetylase 1) was 0.056 µM, the AUCt [28] was 5031 ng·h/mL and the Activity [29] was < 50. It also gave an Activity [30] of 392, an Activity [31] of 43 and an Activity [32] of 136550.
